Series [1] has as its system 2.2.15 cells. Briefly: toxicity analysis, neutral red dye uptake in 2.2.15 cells. Particulars: triplicate, ± standard deviation.
In series [2] the test system is SC-1 cells. The experiment in a line: toxicity TD50 reported with the anti-MLV test. Particulars: Table IV.
In series [3] the test system is HBV. Particulars: 9 μM; relative to average levels in untreated cells; typically observed (Korba and Milman, 1991); cited from earlier work.
Series [4] deals with Moloney murine leukemia virus (MLV). Briefly: anti-Moloney murine leukemia virus (MLV) plaque test. In kind it is cell-based. Particulars: anti-MLV plaque count.
Series [5] concerns HBV. Briefly: inhibition of HBV DNA replication in 2.2.15 cell cultures. In kind it is cell-based. Particulars: for INT[…] DNA MONO. / INT[…] DNA RI: 24 hours following the 9th day of treatment; for INT[…] DNA MONO. / INT[…] DNA RI / HBV VIRION DNA DAY 0 / HBV VIRION DNA DAY 6 / HBV VIRION DNA DAY 9: single well.

This is an account of results in US5616606A, “Oligopeptide antiretroviral agents” (priority 1995, dated 1997).

Where “and” joins values, the source holds several entries; their conditions need not be identical. Equal values may be shown once.

As for `Nc1ccn([C@H]2CC[C@@H](CO)O2)c(=O)n1` [DDC, 2,3'-dideoxycytosine, reference compound], the “NEUTRAL RED DYE UPTAKE” value in series [1] (10 μg/ml) was found to be 99 ± 1 % OF CONTROL; in series [1] (30 μg/ml), 100 ± 1 % OF CONTROL; in series [1] (100 μg/ml), 89 ± 3 % OF CONTROL; in series [1] (300 μg/ml) it was 17 ± 2 % OF CONTROL. The “Toxicity, TD50” value in series [2] is over 100.00 ug/mL^-1. The “depression of HBV RI” value in series [3] is reported as 90%. For the same compound, in series [4], the “Activity, MIC50” value turned out to be 0.74 µg/mL. Also, the “INT[…] DNA MONO.” value in series [5] (10 μM, listed as 2',3'-ddC) is 2.5 pg/μg CELL DNA and 2.0 pg/μg CELL DNA; in series [5] (50 μM, listed as 2',3'-ddC) it was 1.2 pg/μg CELL DNA and 1.4 pg/μg CELL DNA and 1.8 pg/μg CELL DNA and 1.7 pg/μg CELL DNA. Moreover, the “INT[…] DNA RI” value in series [5] (10 μM, listed as 2',3'-ddC) is 9 pg/μg CELL DNA and 7 pg/μg CELL DNA and 8 pg/μg CELL DNA and 5 pg/μg CELL DNA; in series [5] (50 μM, listed as 2',3'-ddC), 2 pg/μg CELL DNA and 1 pg/μg CELL DNA. Moreover, the “HBV VIRION DNA DAY 0” value was 63 pg/ml CULTURE MEDIUM and 66 pg/ml CULTURE MEDIUM and 78 pg/ml CULTURE MEDIUM and 68 pg/ml CULTURE MEDIUM in series [5] (10 μM, listed as 2',3'-ddC); 57 pg/ml CULTURE MEDIUM and 51 pg/ml CULTURE MEDIUM and 58 pg/ml CULTURE MEDIUM and 59 pg/ml CULTURE MEDIUM in series [5] (50 μM, listed as 2',3'-ddC). The “HBV VIRION DNA DAY 6” value was 43 pg/ml CULTURE MEDIUM and 47 pg/ml CULTURE MEDIUM and 54 pg/ml CULTURE MEDIUM and 45 pg/ml CULTURE MEDIUM in series [5] (10 μM, listed as 2',3'-ddC); 26 pg/ml CULTURE MEDIUM and 28 pg/ml CULTURE MEDIUM and 30 pg/ml CULTURE MEDIUM and 20 pg/ml CULTURE MEDIUM in series [5] (50 μM, listed as 2',3'-ddC). The “HBV VIRION DNA DAY 9” value in series [5] (10 μM, listed as 2',3'-ddC) is 7 pg/ml CULTURE MEDIUM and 5 pg/ml CULTURE MEDIUM and 6 pg/ml CULTURE MEDIUM and 8 pg/ml CULTURE MEDIUM; in series [5] (50 μM, zero = undetectable, cutoff 0.1 pg/ml) it was 0 pg/ml CULTURE MEDIUM. Besides, the “effect on HBV replication (in words)” value in series [5] (tested at 50 and 10 μM, compared with 2',3'-ddC) was “significant depressions of HBV DNA replication”.
